{
  "source": "DBAASP",
  "assay_in_all_cases": "≥ marks a high value that may be exact or a test limit, other limits are often not marked, values filed in µg/mL are converted to µM",
  "key": {"Candida tropicalis": {"test_system": "Candida tropicalis"}, "[1]": {"test_system": "Aspergillus nidulans AZN 2867"}, "Fusarium oxysporum": {"test_system": "Fusarium oxysporum"}, "[2]": {"test_system": "Salmonella enterica subsp. enterica serovar Enteritidis"}, "Aspergillus ustus": {"test_system": "Aspergillus ustus"}, "[3]": {"test_system": "Aspergillus fumigatus ATCC MYA-1163"}, "[4]": {"test_system": "Pseudomonas aeruginosa ATCC 27853"}, "[5]": {"test_system": "Cryptococcus neoformans CM133"}, "[6]": {"test_system": "Klebsiella pneumoniae ATCC 10031"}, "[7]": {"test_system": "Staphylococcus aureus ATCC 43300"}, "Candida glabrata": {"test_system": "Candida glabrata"}, "Fusarium solani AZN 6836": {"test_system": "Fusarium solani AZN 6836"}, "[8]": {"test_system": "Staphylococcus aureus ATCC 25923"}, "[9]": {"test_system": "Escherichia coli ATCC 25922"}, "Rhizopus oryzae AZN 8892": {"test_system": "Rhizopus oryzae AZN 8892"}, "Candida krusei": {"test_system": "Candida krusei"}, "[10]": {"test_system": "Candida albicans ATCC 24433"}, "[11]": {"test_system": "Enterococcus faecalis ATCC 29212"}, "[12]": {"test_system": "Staphylococcus haemolyticus"}, "Listeria monocytogenes": {"test_system": "Listeria monocytogenes"}, "Bacillus megaterium": {"test_system": "Bacillus megaterium"}, "Klebsiella pneumoniae": {"test_system": "Klebsiella pneumoniae"}, "Escherichia coli 363": {"test_system": "Escherichia coli 363"}, "Salmonella typhimurium": {"test_system": "Salmonella typhimurium"}, "[13]": {"test_system": "Corynebacterium xerosis C875"}, "Escherichia coli DC2": {"test_system": "Escherichia coli DC2"}, "[14]": {"test_system": "Staphylococcus epidermidis C621"}, "Escherichia coli UB1005": {"test_system": "Escherichia coli UB1005"}, "[15]": {"test_system": "Listeria monocytogenes ATCC 19115"}, "[16]": {"test_system": "Klebsiella pneumoniae ATCC 13883"}, "[17]": {"test_system": "Salmonella enterica subsp. enterica serovar Typhimurium ATCC 700408"}, "[18]": {"test_system": "Salmonella enterica subsp. enterica serovar Typhimurium ATCC 14028"}, "[19]": {"test_system": "Staphylococcus aureus ATCC BAA-39"}, "[20]": {"test_system": "Legionella micdadei ATCC 33218"}, "[21]": {"test_system": "Legionella pneumophila Lens"}, "[22]": {"test_system": "Legionella pneumophila ATCC 33215"}, "[23]": {"test_system": "Legionella pneumophila Paris"}, "[24]": {"test_system": "Legionella pneumophila ATCC 33216"}, "Bacillus megaterium F04": {"test_system": "Bacillus megaterium F04"}, "[25]": {"test_system": "Legionella longbeachae ATCC 33484"}, "[26]": {"test_system": "Legionella pneumophila ATCC 33155"}, "[27]": {"test_system": "Legionella pneumophila Corby"}, "[28]": {"test_system": "Legionella oakridgensis ATCC 33761"}, "[29]": {"test_system": "Legionella feeleii ATCC 35072"}, "[30]": {"test_system": "Legionella bozemanae ATCC 33217"}},
  "data": [
    {"molecule": "CC(C)C[C@@H]1NC(=O)[C@@H](NC(=O)[C@@H](N)CC(=O)O)CSSC[C@@H](C(=O)O)NC(=O)CNC(=O)[C@H](CCC(=O)O)NC(=O)[C@@H]2CSSC[C@@H]3NC(=O)[C@H](C(C)C)NC(=O)[C@H](CCCN=C(N)N)NC(=O)[C@H](CCCN=C(N)N)NC(=O)[C@@H]4CSSC[C@H](NC(=O)[C@H](CCCCN)NC(=O)[C@H](CC(C)C)NC(=O)[C@H](CO)NC(=O)[C@@H]5CCCN5C(=O)[C@H](CO)NC(=O)[C@H](CSSC[C@H](NC(=O)[C@@H]5CCCN5C(=O)CNC(=O)[C@H](CCCCN)NC(=O)[C@H](Cc5ccc(O)cc5)NC(=O)[C@H](CCCN=C(N)N)NC(=O)CNC(=O)[C@H](CO)NC1=O)C(=O)N[C@@H](C)C(=O)N[C@@H](C(C)C)C(=O)N[C@@H](Cc1c[nH]c5ccccc15)C(=O)N[C@@H](CC(=O)O)C(=O)N[C@@H](CC(N)=O)C(=O)N[C@@H](CCC(=O)O)C(=O)N[C@@H]([C@@H](C)O)C(=O)N4)NC(=O)[C@H](Cc1cnc[nH]1)NC(=O)CNC(=O)[C@H](CO)NC(=O)[C@H](CO)NC(=O)[C@H](CCCN=C(N)N)NC(=O)CNC(=O)[C@H](CCC(=O)O)NC(=O)[C@H](CCC(=O)O)NC(=O)[C@H](CCCCN)NC3=O)C(=O)N[C@@H](Cc1c[nH]c3ccccc13)C(=O)N2", "note": "[DCLSGRYKGPCAVWDNETCRRVCKEEGRSSGHCSPSLKCWCEGC]", "values": [
      {"measurement": "MIC", "setting": "Candida tropicalis", "value": "≥ 50", "unit": "µM"},
      {"measurement": "MIC", "setting": "[1]", "value": "≥ 50", "unit": "µM"},
      {"measurement": "MIC", "setting": "Fusarium oxysporum", "value": 6.25, "unit": "µM"},
      {"measurement": "MIC", "setting": "[2]", "value": "≥ 50", "unit": "µM"},
      {"measurement": "MIC", "setting": "Aspergillus ustus", "value": 25, "unit": "µM"},
      {"measurement": "MIC", "setting": "[3]", "value": 6.25, "unit": "µM"},
      {"measurement": "MIC", "setting": "[4]", "value": "> 50", "unit": "µM"},
      {"measurement": "MIC", "setting": "[5]", "value": "≥ 50", "unit": "µM"},
      {"measurement": "MIC", "setting": "[6]", "value": "≥ 50", "unit": "µM"},
      {"measurement": "MIC", "setting": "[7]", "value": "> 50", "unit": "µM"},
      {"measurement": "MIC", "setting": "Candida glabrata", "value": "≥ 50", "unit": "µM"},
      {"measurement": "MIC", "setting": "Fusarium solani AZN 6836", "value": 25, "unit": "µM"},
      {"measurement": "MIC", "setting": "[8]", "value": "> 50", "unit": "µM"},
      {"measurement": "MIC", "setting": "[9]", "value": "> 50", "unit": "µM"},
      {"measurement": "MIC", "setting": "Rhizopus oryzae AZN 8892", "value": "≥ 50", "unit": "µM"},
      {"measurement": "MIC", "setting": "Candida krusei", "value": "≥ 50", "unit": "µM"},
      {"measurement": "MIC", "setting": "[10]", "value": "≥ 50", "unit": "µM"},
      {"measurement": "MIC", "setting": "[11]", "value": "> 50", "unit": "µM"}
    ]},
    {"molecule": "CC[C@H](C)[C@H](NC(=O)[C@H](CCSC)NC(=O)[C@H](CC(C)C)NC(=O)[C@H](CC(C)C)NC(=O)[C@@H](NC(=O)[C@H](Cc1c[nH]c2ccccc12)NC(=O)[C@H](CC(C)C)NC(=O)[C@H](Cc1c[nH]c2ccccc12)NC(=O)[C@@H](NC(=O)[C@H](CCCCN)NC(=O)[C@H](CO)NC(=O)[C@H](CCCNC(=N)N)NC(=O)[C@H](CC(C)C)NC(=O)CN)[C@@H](C)CC)C(C)C)C(=O)N[C@@H](Cc1c[nH]c2ccccc12)C(=O)N[C@@H](CCC(N)=O)C(=O)N[C@@H](CCC(=O)O)C(=O)N[C@@H](CO)C(=O)N[C@@H](CC(N)=O)C(=O)N[C@@H](CCCCN)C(=O)N[C@@H](Cc1ccccc1)C(=O)N[C@@H](CCCCN)C(=O)N[C@@H](CCCCN)C(=O)N[C@@H](CCSC)C(=O)O", "note": "[GLRSKIWLWVLLMIWQESNKFKKM]", "values": [
      {"measurement": "MIC", "setting": "[12]", "value": 12.5, "unit": "µM"},
      {"measurement": "MIC", "setting": "Listeria monocytogenes", "value": 0.4, "unit": "µM"},
      {"measurement": "MIC", "setting": "Bacillus megaterium", "value": 0.4, "unit": "µM"},
      {"measurement": "MIC", "setting": "Klebsiella pneumoniae", "value": 12.5, "unit": "µM"},
      {"measurement": "MIC", "setting": "Escherichia coli 363", "value": 3.1, "unit": "µM"},
      {"measurement": "MIC", "setting": "Salmonella typhimurium", "value": 3.1, "unit": "µM"}
    ]},
    {"molecule": "CC(C)C[C@H](NC(=O)[C@H](C)NC(=O)[C@H](C)NC(=O)[C@H](C)NC(=O)[C@H](CCCCN)NC(=O)[C@@H](N)CCCCN)C(=O)N[C@@H](C)C(=O)N[C@@H](C)C(=O)N[C@@H](C)C(=O)N[C@@H](C)C(=O)N[C@@H](C)C(=O)N[C@@H](CC(C)C)C(=O)N[C@@H](C)C(=O)N[C@@H](C)C(=O)N[C@@H](Cc1c[nH]c2ccccc12)C(=O)N[C@@H](C)C(=O)N[C@@H](C)C(=O)N[C@@H](CC(C)C)C(=O)N[C@@H](C)C(=O)N[C@@H](C)C(=O)N[C@@H](C)C(=O)N[C@@H](CCCCN)C(=O)N[C@@H](CCCCN)C(=O)N[C@@H](CCCCN)C(=O)N[C@@H](CCCCN)C(N)=O", "note": "[KKAAALAAAAALAAWAALAAAKKKK]", "values": [
      {"measurement": "MIC", "setting": "[13]", "value": 0.25, "unit": "µM"},
      {"measurement": "MIC", "setting": "Escherichia coli DC2", "value": 16, "unit": "µM"},
      {"measurement": "MIC", "setting": "[14]", "value": 2, "unit": "µM"},
      {"measurement": "MIC", "setting": "Escherichia coli UB1005", "value": "≥ 32", "unit": "µM"}
    ]},
    {"molecule": "CC(C)C[C@H](NC(=O)[C@H](CCCN=C(N)N)NC(=O)CNC(=O)[C@H](CCC(N)=O)NC(=O)[C@@H]1CCCN1C(=O)[C@H](CC(C)C)NC(=O)[C@H](CCCCN)NC(=O)[C@H](Cc1ccccc1)NC(=O)[C@@H](NC(=O)[C@@H]1CCCN1C(=O)[C@H](CCC(N)=O)NC(=O)[C@H](CO)NC(=O)[C@H](Cc1ccccc1)NC(=O)[C@H](CCCN=C(N)N)NC(=O)[C@@H](N)CCC(N)=O)[C@@H](C)O)C(=O)N[C@H](C(=O)N[C@@H](CC(C)C)C(=O)N[C@@H](CO)C(=O)N[C@@H](CCCN=C(N)N)C(=O)N[C@@H](CCCCN)C(=O)N[C@@H](Cc1ccccc1)C(=O)O)[C@@H](C)O", "note": "[QRFSQPTFKLPQGRLTLSRKF]", "values": [
      {"measurement": "MIC", "setting": "[15]", "value": 9.86, "unit": "µM"},
      {"measurement": "MIC", "setting": "[16]", "value": 9.86, "unit": "µM"},
      {"measurement": "MIC", "setting": "[17]", "value": 9.86, "unit": "µM"},
      {"measurement": "MIC", "setting": "[7]", "value": 39.4, "unit": "µM"},
      {"measurement": "MIC", "setting": "[18]", "value": 9.86, "unit": "µM"},
      {"measurement": "MIC", "setting": "[19]", "value": "≥ 39.4", "unit": "µM"},
      {"measurement": "MIC", "setting": "[8]", "value": 39.4, "unit": "µM"},
      {"measurement": "MIC", "setting": "[9]", "value": 9.86, "unit": "µM"}
    ]},
    {"molecule": "CC[C@H](C)[C@H](NC(=O)[C@H](CC(C)C)NC(=O)[C@H](CCCCN)NC(=O)[C@@H](NC(=O)[C@H](CC(C)C)NC(=O)[C@H](CC(=O)O)NC(=O)CNC(=O)[C@@H](NC(=O)[C@@H](NC(=O)[C@H](CO)NC(=O)[C@@H](NC(=O)[C@@H](NC(=O)[C@H](CC(=O)O)NC(=O)[C@H](C)NC(=O)[C@H](C)NC(=O)[C@@H](N)CCSC)[C@@H](C)CC)[C@@H](C)CC)[C@@H](C)O)[C@@H](C)CC)C(C)C)C(=O)N[C@H](C(=O)N[C@@H](CC(N)=O)C(=O)N[C@H](C(=O)N[C@H](C(=O)N[C@@H](CCCCN)C(=O)N[C@@H](CCCCN)C(=O)N[C@@H](Cc1ccccc1)C(=O)N[C@@H](CCC(N)=O)C(=O)N[C@@H](CCCCN)C(=O)O)C(C)C)[C@@H](C)O)[C@@H](C)CC", "note": "[MAADIISTIGDLVKLIINTVKKFQK]", "values": [
      {"measurement": "MIC", "setting": "[20]", "value": 18.1, "unit": "µM"},
      {"measurement": "MIC", "setting": "[21]", "value": 1.09, "unit": "µM"},
      {"measurement": "MIC", "setting": "[22]", "value": 18.1, "unit": "µM"},
      {"measurement": "MIC", "setting": "[23]", "value": 18.1, "unit": "µM"},
      {"measurement": "MIC", "setting": "[24]", "value": 18.1, "unit": "µM"},
      {"measurement": "MIC", "setting": "Bacillus megaterium F04", "value": 4.35, "unit": "µM"},
      {"measurement": "MIC", "setting": "[25]", "value": 18.1, "unit": "µM"},
      {"measurement": "MIC", "setting": "[26]", "value": 18.1, "unit": "µM"},
      {"measurement": "MIC", "setting": "[27]", "value": 18.1, "unit": "µM"},
      {"measurement": "MIC", "setting": "[28]", "value": 18.1, "unit": "µM"},
      {"measurement": "MIC", "setting": "[29]", "value": 18.1, "unit": "µM"},
      {"measurement": "MIC", "setting": "[30]", "value": 18.1, "unit": "µM"}
    ]}
  ]
}
